The values below come from BindingDB's records for doi:10.1016/j.bmcl.2007.12.050 (Neurogen, 2008).

A short description of the test: Antagonist activity at CRF1 receptor expressed in mouse AtT20 cells assessed as inhibition of sauvagine-stimulated cAMP accumulation.

pKi: −log10 of the molar value.

A word on the pKi: it is −log10 of the Ki, conventionally taken in molar units. On to `CCCN(CCC)c1c(C)nc(-c2c(C)cc(C)cc2OC)c2ccccc12` [1-(2-methoxy-4,6-dimethylphenyl)-3-methyl-N,N-dipropylisoquinolin-4-amine], for which the pKi is 7.92.
